Test results as given in ChEMBL document CHEMBL4507304, “Data for DCP probe TP-021” (2021).

Key:
[1] = system: Tyrosine-protein kinase ABL1 (Homo sapiens), P00519 [H396P]; details: Compound concentration 1000.0 nM
[2] = system: Tyrosine-protein kinase ABL1 (Homo sapiens), P00519 [Y253F]; details: Compound concentration 1000.0 nM
[3] = biological target: Ankyrin repeat and protein kinase domain-containing protein 1 (Homo sapiens) (UniProt Q8NFD2); details: Compound concentration 1000.0 nM
[4] = biological target: BMP-2-inducible protein kinase (Homo sapiens) (UniProt Q9NSY1); details: Compound concentration 1000.0 nM
[5] = biological target: Bone morphogenetic protein receptor type-1A (Homo sapiens) (UniProt P36894); details: Compound concentration 1000.0 nM
[6] = biological target: Bone morphogenetic protein receptor type-2 (Homo sapiens) (UniProt Q13873); details: Compound concentration 1000.0 nM
[7] = biological target: Cyclin-dependent kinase 4 (Homo sapiens) (UniProt P11802); details: Compound concentration 1000.0 nM
Sequence of Cyclin-dependent kinase 4 (Homo sapiens) (P11802 whole entry): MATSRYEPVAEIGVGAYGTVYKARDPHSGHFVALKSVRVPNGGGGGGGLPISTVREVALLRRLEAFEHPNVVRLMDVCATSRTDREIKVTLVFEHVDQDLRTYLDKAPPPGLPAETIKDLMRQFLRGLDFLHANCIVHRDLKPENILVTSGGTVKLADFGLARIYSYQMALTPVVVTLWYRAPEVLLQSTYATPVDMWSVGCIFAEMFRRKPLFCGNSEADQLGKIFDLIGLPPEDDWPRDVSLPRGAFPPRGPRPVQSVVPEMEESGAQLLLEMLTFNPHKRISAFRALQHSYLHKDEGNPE

[8] = system: Epidermal growth factor receptor (Homo sapiens), P00533 [UNDEFINED MUTATION]; details: Compound concentration 1000.0 nM
[9] = biological target: Ephrin type-A receptor 2 (Homo sapiens) (UniProt P29317); details: Compound concentration 1000.0 nM
[10] = biological target: Focal adhesion kinase 1 (Homo sapiens) (UniProt Q05397); details: Compound concentration 1000.0 nM
[11] = system: Fibroblast growth factor receptor 3 (Homo sapiens), P22607 [G697C]; details: Compound concentration 1000.0 nM
Sequence of Fibroblast growth factor receptor 3 (Homo sapiens), P22607 [G697C] (P22607 whole entry G697C): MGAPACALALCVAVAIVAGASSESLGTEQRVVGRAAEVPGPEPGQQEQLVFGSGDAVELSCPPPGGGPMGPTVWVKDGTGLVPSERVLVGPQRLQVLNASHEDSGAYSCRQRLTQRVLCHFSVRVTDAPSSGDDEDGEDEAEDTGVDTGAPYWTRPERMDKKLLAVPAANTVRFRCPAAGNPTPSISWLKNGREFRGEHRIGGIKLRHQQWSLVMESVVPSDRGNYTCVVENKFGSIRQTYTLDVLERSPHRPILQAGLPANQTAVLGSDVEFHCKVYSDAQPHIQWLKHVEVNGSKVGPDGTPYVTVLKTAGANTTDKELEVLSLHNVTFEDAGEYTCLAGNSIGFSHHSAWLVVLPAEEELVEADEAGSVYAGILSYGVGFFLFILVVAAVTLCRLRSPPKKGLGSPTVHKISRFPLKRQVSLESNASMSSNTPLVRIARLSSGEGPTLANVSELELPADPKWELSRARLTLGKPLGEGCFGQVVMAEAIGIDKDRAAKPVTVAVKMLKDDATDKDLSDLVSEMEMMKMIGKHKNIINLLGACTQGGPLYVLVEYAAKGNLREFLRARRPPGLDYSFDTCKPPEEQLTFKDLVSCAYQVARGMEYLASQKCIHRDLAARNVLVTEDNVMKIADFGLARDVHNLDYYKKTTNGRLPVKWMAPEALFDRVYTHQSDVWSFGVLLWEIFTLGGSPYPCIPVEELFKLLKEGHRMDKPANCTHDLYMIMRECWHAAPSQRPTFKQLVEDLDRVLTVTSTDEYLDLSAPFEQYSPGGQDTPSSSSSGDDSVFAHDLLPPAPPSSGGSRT

[12] = system: Receptor-type tyrosine-protein kinase FLT3 (Homo sapiens), P36888 [D835Y]; details: Compound concentration 1000.0 nM
[13] = system: Receptor-type tyrosine-protein kinase FLT3 (Homo sapiens), P36888 [UNDEFINED MUTATION]; details: Compound concentration 1000.0 nM
[14] = system: Receptor-type tyrosine-protein kinase FLT3 (Homo sapiens), P36888 [R834Q]; details: Compound concentration 1000.0 nM
[15] = biological target: Homeodomain-interacting protein kinase 3 (Homo sapiens) (UniProt Q9H422); details: Compound concentration 1000.0 nM
[16] = biological target: Inhibitor of nuclear factor kappa-B kinase subunit beta (Homo sapiens) (UniProt O14920); details: Compound concentration 1000.0 nM
[17] = system: Mast/stem cell growth factor receptor Kit (Homo sapiens), P10721 [V559D,V654A]; details: Compound concentration 1000.0 nM
[18] = biological target: LIM domain kinase 2 (Homo sapiens) (UniProt P53671); details: Compound concentration 1000.0 nM
[19] = biological target: Serine/threonine-protein kinase MARK2 (Homo sapiens) (UniProt Q7KZI7); details: Compound concentration 1000.0 nM
[20] = biological target: Mitogen-activated protein kinase kinase kinase 9 (Homo sapiens) (UniProt P80192); details: Compound concentration 1000.0 nM
[21] = biological target: Serine/threonine-protein kinase Nek9 (Homo sapiens) (UniProt Q8TD19); details: Compound concentration 1000.0 nM
[22] = biological target: Mitogen-activated protein kinase kinase kinase 14 (Homo sapiens) (UniProt Q99558); details: Compound concentration 1000.0 nM
[23] = biological target: Serine/threonine-protein kinase NLK (Homo sapiens) (UniProt Q9UBE8); details: Compound concentration 1000.0 nM
[24] = biological target: Mitogen-activated protein kinase 13 (Homo sapiens) (UniProt O15264); details: Compound concentration 1000.0 nM
[25] = biological target: Mitogen-activated protein kinase 12 (Homo sapiens) (UniProt P53778); details: Compound concentration 1000.0 nM
[26] = biological target: Serine/threonine-protein kinase PAK 3 (Homo sapiens) (UniProt O75914); details: Compound concentration 1000.0 nM
[27] = system: Phosphatidylinositol 4,5-bisphosphate 3-kinase catalytic subunit alpha isoform (Homo sapiens), P42336 [I800L]; details: Compound concentration 1000.0 nM
[28] = biological target: Phosphatidylinositol 4-phosphate 5-kinase type-1 alpha (Homo sapiens) (UniProt Q99755); details: Compound concentration 1000.0 nM
[29] = biological target: cAMP-dependent protein kinase catalytic subunit beta (Homo sapiens) (UniProt P22694); details: Compound concentration 1000.0 nM
[30] = biological target: Serine/threonine-protein kinase PLK2 (Homo sapiens) (UniProt Q9NYY3); details: Compound concentration 1000.0 nM
Sequence of Serine/threonine-protein kinase PLK2 (Homo sapiens) (Q9NYY3 whole entry, looked up): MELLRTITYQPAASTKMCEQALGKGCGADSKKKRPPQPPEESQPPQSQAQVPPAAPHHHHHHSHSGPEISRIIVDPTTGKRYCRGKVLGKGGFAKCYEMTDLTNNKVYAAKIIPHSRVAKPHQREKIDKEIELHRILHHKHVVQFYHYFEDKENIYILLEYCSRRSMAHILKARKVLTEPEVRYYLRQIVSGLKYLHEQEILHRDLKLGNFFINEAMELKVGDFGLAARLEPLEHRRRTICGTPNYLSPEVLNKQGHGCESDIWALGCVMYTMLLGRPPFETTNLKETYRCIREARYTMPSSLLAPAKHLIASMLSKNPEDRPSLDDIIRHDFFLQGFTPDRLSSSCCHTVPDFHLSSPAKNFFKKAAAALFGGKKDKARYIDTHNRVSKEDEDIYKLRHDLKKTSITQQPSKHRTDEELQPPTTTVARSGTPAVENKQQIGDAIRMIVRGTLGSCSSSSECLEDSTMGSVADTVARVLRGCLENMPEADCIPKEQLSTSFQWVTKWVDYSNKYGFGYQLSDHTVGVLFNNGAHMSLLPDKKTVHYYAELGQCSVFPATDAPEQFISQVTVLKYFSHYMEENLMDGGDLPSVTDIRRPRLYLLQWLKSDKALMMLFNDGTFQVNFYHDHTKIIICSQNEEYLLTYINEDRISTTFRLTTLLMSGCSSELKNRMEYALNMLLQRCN

[31] = biological target: Serine/threonine-protein kinase D2 (Homo sapiens) (UniProt Q9BZL6); details: Compound concentration 1000.0 nM
[32] = biological target: Serine/threonine-protein kinase RIO3 (Homo sapiens) (UniProt O14730); details: Compound concentration 1000.0 nM
Sequence of Serine/threonine-protein kinase RIO3 (Homo sapiens) (O14730 whole entry): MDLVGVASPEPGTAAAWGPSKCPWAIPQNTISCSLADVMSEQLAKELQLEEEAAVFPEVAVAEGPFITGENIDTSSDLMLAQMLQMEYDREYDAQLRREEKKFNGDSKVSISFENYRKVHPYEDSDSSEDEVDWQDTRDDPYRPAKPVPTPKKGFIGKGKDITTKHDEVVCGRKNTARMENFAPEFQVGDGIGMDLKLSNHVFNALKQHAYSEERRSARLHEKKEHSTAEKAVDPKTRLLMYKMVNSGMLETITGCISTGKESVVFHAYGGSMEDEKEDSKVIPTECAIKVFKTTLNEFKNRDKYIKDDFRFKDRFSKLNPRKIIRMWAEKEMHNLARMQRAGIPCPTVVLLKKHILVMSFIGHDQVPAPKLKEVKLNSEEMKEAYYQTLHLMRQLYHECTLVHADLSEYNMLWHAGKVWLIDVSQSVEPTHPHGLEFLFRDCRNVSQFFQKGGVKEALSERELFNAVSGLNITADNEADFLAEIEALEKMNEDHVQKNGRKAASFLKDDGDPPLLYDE

[33] = biological target: Serine/threonine-protein kinase Sgk2 (Homo sapiens) (UniProt Q9HBY8); details: Compound concentration 1000.0 nM
Sequence of Serine/threonine-protein kinase Sgk2 (Homo sapiens) (Q9HBY8 whole entry): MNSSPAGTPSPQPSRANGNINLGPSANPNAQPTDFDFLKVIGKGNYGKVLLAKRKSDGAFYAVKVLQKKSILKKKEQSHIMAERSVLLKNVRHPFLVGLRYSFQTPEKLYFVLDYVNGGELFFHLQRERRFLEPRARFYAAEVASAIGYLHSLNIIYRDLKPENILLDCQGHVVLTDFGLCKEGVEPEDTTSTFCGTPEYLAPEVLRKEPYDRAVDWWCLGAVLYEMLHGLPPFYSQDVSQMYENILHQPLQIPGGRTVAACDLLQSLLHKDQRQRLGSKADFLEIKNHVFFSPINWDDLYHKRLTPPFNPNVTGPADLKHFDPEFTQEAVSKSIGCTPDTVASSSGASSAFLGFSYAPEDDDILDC

[34] = biological target: SNF-related serine/threonine-protein kinase (Homo sapiens) (UniProt Q9NRH2); details: Compound concentration 1000.0 nM
[35] = biological target: SRSF protein kinase 3 (Homo sapiens) (UniProt Q9UPE1); details: Compound concentration 1000.0 nM
[36] = biological target: Tyrosine-protein kinase SYK (Homo sapiens) (UniProt P43405); details: Compound concentration 1000.0 nM
[37] = biological target: Dual specificity protein kinase TTK (Homo sapiens) (UniProt P33981); details: Compound concentration 1000.0 nM
[38] = biological target: Non-receptor tyrosine-protein kinase TYK2 (Homo sapiens) (UniProt P29597); details: Compound concentration 1000.0 nM
[39] = biological target: Serine/threonine-protein kinase ULK2 (Homo sapiens) (UniProt Q8IYT8); details: Compound concentration 1000.0 nM
[40] = biological target: Serine/threonine-protein kinase WNK1 (Homo sapiens) (UniProt Q9H4A3); details: Compound concentration 1000.0 nM
Sequence of Serine/threonine-protein kinase WNK1 (Homo sapiens) (Q9H4A3 whole entry, looked up): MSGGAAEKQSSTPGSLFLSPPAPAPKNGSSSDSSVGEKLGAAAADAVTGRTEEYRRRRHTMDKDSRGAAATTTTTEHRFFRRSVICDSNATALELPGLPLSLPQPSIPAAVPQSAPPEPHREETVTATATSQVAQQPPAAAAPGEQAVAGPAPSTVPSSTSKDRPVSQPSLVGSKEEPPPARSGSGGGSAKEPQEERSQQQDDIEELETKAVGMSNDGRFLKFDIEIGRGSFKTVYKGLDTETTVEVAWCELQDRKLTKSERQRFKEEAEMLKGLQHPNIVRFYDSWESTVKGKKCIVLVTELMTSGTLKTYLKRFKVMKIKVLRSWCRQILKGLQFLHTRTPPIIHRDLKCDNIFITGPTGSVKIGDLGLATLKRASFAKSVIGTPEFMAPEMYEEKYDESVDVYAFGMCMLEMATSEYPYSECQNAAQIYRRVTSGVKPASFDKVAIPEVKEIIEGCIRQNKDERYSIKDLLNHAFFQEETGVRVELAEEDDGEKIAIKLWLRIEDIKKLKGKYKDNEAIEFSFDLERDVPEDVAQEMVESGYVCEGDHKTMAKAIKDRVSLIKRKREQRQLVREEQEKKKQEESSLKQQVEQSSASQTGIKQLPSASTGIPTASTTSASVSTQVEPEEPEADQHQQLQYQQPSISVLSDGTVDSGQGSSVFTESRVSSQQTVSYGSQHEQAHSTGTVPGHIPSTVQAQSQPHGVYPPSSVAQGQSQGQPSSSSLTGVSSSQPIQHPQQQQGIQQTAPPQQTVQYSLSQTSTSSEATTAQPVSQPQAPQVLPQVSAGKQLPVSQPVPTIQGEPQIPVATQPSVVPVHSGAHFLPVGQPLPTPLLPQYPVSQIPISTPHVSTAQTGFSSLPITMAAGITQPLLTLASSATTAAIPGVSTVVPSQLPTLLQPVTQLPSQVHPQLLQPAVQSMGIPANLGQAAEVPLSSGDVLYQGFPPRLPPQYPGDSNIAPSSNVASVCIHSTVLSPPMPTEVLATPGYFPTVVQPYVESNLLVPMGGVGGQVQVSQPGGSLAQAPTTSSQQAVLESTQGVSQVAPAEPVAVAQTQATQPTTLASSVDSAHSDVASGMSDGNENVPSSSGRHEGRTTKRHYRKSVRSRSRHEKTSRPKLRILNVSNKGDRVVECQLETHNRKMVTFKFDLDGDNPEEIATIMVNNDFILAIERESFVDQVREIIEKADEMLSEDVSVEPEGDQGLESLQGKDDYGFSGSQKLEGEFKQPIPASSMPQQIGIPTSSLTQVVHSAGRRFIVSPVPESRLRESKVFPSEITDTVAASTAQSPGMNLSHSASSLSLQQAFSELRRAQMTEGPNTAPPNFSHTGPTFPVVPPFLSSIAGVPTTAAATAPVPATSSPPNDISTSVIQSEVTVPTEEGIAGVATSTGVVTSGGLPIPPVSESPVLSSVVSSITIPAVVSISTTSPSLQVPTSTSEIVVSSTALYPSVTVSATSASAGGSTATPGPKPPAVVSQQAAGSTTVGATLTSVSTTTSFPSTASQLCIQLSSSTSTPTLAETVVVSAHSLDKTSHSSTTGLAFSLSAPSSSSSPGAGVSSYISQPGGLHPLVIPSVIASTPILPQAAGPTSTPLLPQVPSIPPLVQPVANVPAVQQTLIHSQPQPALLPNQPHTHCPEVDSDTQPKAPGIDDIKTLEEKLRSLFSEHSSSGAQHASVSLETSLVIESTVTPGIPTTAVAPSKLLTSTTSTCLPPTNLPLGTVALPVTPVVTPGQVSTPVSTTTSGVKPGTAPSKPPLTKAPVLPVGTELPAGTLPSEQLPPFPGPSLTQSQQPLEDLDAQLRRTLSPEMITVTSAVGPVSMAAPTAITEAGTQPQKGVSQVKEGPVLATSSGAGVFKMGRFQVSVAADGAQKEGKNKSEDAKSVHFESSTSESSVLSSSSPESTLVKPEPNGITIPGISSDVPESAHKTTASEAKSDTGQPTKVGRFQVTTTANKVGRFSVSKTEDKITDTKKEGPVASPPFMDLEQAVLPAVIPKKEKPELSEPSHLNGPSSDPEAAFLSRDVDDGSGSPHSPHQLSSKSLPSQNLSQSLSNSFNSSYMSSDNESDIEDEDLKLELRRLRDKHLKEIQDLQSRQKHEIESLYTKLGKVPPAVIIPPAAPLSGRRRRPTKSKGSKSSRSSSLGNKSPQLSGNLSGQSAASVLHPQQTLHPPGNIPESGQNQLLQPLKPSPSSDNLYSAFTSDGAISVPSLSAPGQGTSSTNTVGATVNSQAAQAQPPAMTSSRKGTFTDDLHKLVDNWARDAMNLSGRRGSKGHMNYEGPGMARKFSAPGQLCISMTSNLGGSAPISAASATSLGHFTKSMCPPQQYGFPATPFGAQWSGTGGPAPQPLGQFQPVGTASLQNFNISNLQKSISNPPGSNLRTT

[41] = biological target: Serine/threonine-protein kinase WNK3 (Homo sapiens) (UniProt Q9BYP7); details: Compound concentration 1000.0 nM
[42] = biological target: 5-hydroxytryptamine receptor 1E (Homo sapiens) (UniProt P28566); details: Compound concentration 10.0 uM
[43] = biological target: Histamine H3 receptor (Homo sapiens) (UniProt Q9Y5N1); details: Compound concentration 10.0 uM
[44] = biological target: Beta-1 adrenergic receptor (Homo sapiens) (UniProt P08588); details: Compound concentration 10.0 uM
[45] = biological target: Sigma non-opioid intracellular receptor 1 (Homo sapiens) (UniProt Q99720); details: Compound concentration 10.0 uM

N#Cc1ccc(Nc2ccc3[nH]c(=O)[nH]c3c2)c(Cl)c1
inactive: residual activity [1] 95% | residual activity [2] 87% | residual activity [3] 100% | residual activity [4] 91% | residual activity [5] 100% | residual activity [6] 91% | residual activity [7] 91% | residual activity [8] 100% | residual activity [9] 84% | residual activity [10] 100% | residual activity [11] 93% | residual activity [12] 94% | residual activity [13] 100% | residual activity [14] 90% | residual activity [15] 94% | residual activity [16] 89% | residual activity [17] 96% | residual activity [18] 100% | residual activity [19] 78% | residual activity [20] 100% | residual activity [21] 96% | residual activity [22] 100% | residual activity [23] 100% | residual activity [24] 100% | residual activity [25] 100% | residual activity [26] 100% | residual activity [27] 77% | residual activity [28] 100% | residual activity [29] 96% | residual activity [30] 86% | residual activity [31] 100% | residual activity [32] 100% | residual activity [33] 65% | residual activity [34] 100% | residual activity [35] 100% | residual activity [36] 100% | residual activity [37] 88% | residual activity [38] 100% | residual activity [39] 99% | residual activity [40] 100% | residual activity [41] 100% | inhibition [42] 12.6% | inhibition [43] 8.47% | inhibition [44] 4.98% | inhibition [45] 14%

O=C1CCc2cc(Nc3cc(OC4CCOCC4)c([N+](=O)[O-])cc3Cl)ccc2N1
inactive: residual activity [1] 85% | residual activity [2] 79% | residual activity [3] 82% | residual activity [4] 100% | residual activity [5] 97% | residual activity [6] 92% | residual activity [7] 90% | residual activity [8] 92% | residual activity [9] 75% | residual activity [10] 100% | residual activity [11] 79% | residual activity [12] 100% | residual activity [13] 78% | residual activity [14] 87% | residual activity [15] 91% | residual activity [16] 100% | residual activity [17] 92% | residual activity [18] 100% | residual activity [19] 71% | residual activity [20] 90% | residual activity [21] 80% | residual activity [22] 81% | residual activity [23] 100% | residual activity [24] 100% | residual activity [25] 100% | residual activity [26] 100% | residual activity [27] 63% | residual activity [28] 100% | residual activity [29] 100% | residual activity [30] 92% | residual activity [31] 85% | residual activity [32] 100% | residual activity [33] 80% | residual activity [34] 100% | residual activity [35] 100% | residual activity [36] 100% | residual activity [37] 87% | residual activity [38] 94% | residual activity [39] 99% | residual activity [40] 86% | residual activity [41] 87% | inhibition [42] 16.5% | inhibition [43] 15.1% | inhibition [44] 3.3% | inhibition [45] 11.7%
